# Results from patent US20230092895A1, “TANDEM CD19 CAR-BASED COMPOSITIONS AND METHODS FOR IMMUNOTHERAPY” (Obsidian Therapeutics, Inc., priority 2019, published 2023).
# Where two headings read alike, the source gives them in different places.
# How the values were obtained:
# [1] = tested on: HCT-116 cells; settings: 24 hours; for IL15Ra mean fluorescent intensity (MFI): HCT-116 cells stably expressing OT-001111
# Protocol: HCT-116 cells stably expressing the OT-001111 (OT-IL15-009) cassette were incubated with 0 to 250 μM TMP ligand (or DMSO) for 24 hours. Membrane bound IL15-IL15Ra levels were assessed using flow cytometry detection of IL15Ra.
# [2] = human, cited from earlier work
# [3] = tested on: GFP positive (IL12 negative) T cells; assay: In vivo T cell phenotype: GFP positive cells co-transferred with CD19 CAR-IL12 cells, FACS markers, plasma IL12; parameters: species or system NSG mice
# Protocol: IL12-transduced T cells have a Th1-skewed phenotype in vitro, i.e. produce IFN gamma). To assess phenotypic effects of IL12 in vivo, GFP positive (IL12 negative) cells were generated and co-transferred with CD19 CAR-IL12 transduced cells or CD19 alone or IL12 alone cells. Nalm 6 tumor bearing NSG mice were injected with 8 million GFP positive cells, in addition to CD19 CAR-IL12 cells or their corresponding monocistronic constructs. The groups utilized in this study included, 1e^6 empty vector expressing T cells plus 8e^6 GFP positive cells, 1e^6 OT-001407 plus 8e^6 GFP positive cells, 0.1 e^6 OT-001356 plus 8e^6 GFP positive cells, 1e^6 OT-001356 plus 8e^6 GFP positive cells, 0.1e^6 OT-001357 plus 8e^6 GFP positive cells, 1e^6 OT-001357 plus 8e^6 GFP positive cells, and 1e^6 OT-001442 plus 8e^6 GFP positive cells.
# Animals were bled on day 3, day 5, day 7 and euthanized at day 12. Blood, spleen, and bone marrow were collected for analysis of T cell number and CD8 frequency. Phenotypic T cell markers such as Granzyme, Tbet, pSTAT4, CD25, and ICOS were analyzed in the GFP positive cells using FACS. […] By day 12, post transfer, the levels of Granzyme B, Tbet, pSTAT4, CD25 and ICOS levels increased in the blood of the mice injected with the CD19 CAR-IL12 tandem constructs. ANOVA test for significance was p<0.0001 for all markers. […]
"EC 50 of IL12 in plasma ([3]; mouse, in vivo) [ng/mL]",Molecule,TMP concentration resulting in IL15Ra MFI levels above DMSO controls ([1]; HCT-116 stably expressing OT-001111) [µM],IL15Ra mean fluorescent intensity (MFI) ([1]; TMP 0.00064 μM),IL15Ra mean fluorescent intensity (MFI) ([1]; TMP 0.0032 μM),IL15Ra mean fluorescent intensity (MFI) ([1]; TMP 0.016 μM),IL15Ra mean fluorescent intensity (MFI) ([1]; TMP 0.08 μM),IL15Ra mean fluorescent intensity (MFI) ([1]; TMP 0.4 μM),IL15Ra mean fluorescent intensity (MFI) ([1]; TMP 2 μM),IL15Ra mean fluorescent intensity (MFI) ([1]; TMP 10 μM),IL15Ra mean fluorescent intensity (MFI) ([1]; TMP 50 μM),IL15Ra mean fluorescent intensity (MFI) ([1]; TMP 250 μM),TMP maximum peak levels ([2]; 150 mg/m2 IV every 8 hours) [µM],TMP steady state levels ([2]; 80-160 mg BID PO) [µM],"level of IL12 sufficient to induce phenotypic changes ([3]; plasma, markers and IFN gamma) [pg/mL]"
,"COc1cc(Cc2cnc(N)nc2N)cc(OC)c1OC [TMP, Trimethoprim]",0.0032,304,469,666,769,1001,1104,1204,1344,1576,17 to 34,1 to 6,
~0.1,"IL12: heterodimeric protein of two subunits (p35, p40); cytokine",,,,,,,,,,,,,200
